{
  "source": "paper PMC9395488",
  "about": "“First-in-human study of IM156, a novel potent biguanide oxidative phosphorylation (OXPHOS) inhibitor, in patients with advanced solid tumors” (Investigational New Drugs, 2022)",
  "origin": "cited, not measured here",
  "conditions": "SD rats, 50, 100/75, or 150/100 mg/kg QOD oral gavage; ref ImmunoMet, 2018; cited from earlier work",
  "data": [
    {"smiles": "NC(=Nc1ccc(OC(F)(F)F)cc1)N=C(N)N1CCCC1", "note": "[IM156]", "values": [
      {"measurement": "dose proportionality of exposure based on AUClast", "result": "more than dose-proportional"},
      {"measurement": "dose proportionality of exposure based on Cmax", "result": "less than dose-proportional"}
    ]}
  ]
}
